# Laboratory results taken from patent US20230365556A1, “N-ACYL AMINO ACID COMPOUNDS AND METHODS OF USE” (Pliant Therapeutics, Inc., priority 2016, published 2023).
# Where a name gives a salt, the structure may show the parent alone.
# Molecular target: αvβ1 integrin (αvβ1 expressing CHO cells) (Homo sapiens (Human), UniProt P05556+P06756)
# Assay: Cell adhesion assay: inhibition of αvβ1 expressing CHO cells attaching to TGFβ1LAP
# Format: cell-based
# Conditions: 1 h at 37° C., crystal violet absorbance 595 nm, read-out: αvβ1 Inhibition IC50 (nM)-range
# Experimental: Example B1—Cell Adhesion Assay
# In order to determine the potency, the compounds were assessed for their ability to inhibit αvβ1 expressing CHO cells attach to TGFβ1LAP. Microplates were coated overnight with 2 ug/ml TGFβ1LAP at 4° C., and blocked with 2% BSA/PBS for 30 min before the assay. Cells were detached and washed in PBS. After that the cells were resuspended in DMEM at 1.0×10^6 cells/ml, fifty microliter of cell suspension and fifty microliter of compound solution were added into the plate. The plates were incubated for one hour at 37° C. in humidified 5% carbon dioxide. Non-adherent cells were removed by centrifugation top side down at 58 g for 5 min. The attached cells were fixed and stained with 0.5% crystal violet (in 20% methanol and 1% formaldehyde) and the wells washed with PBS. Crystal violet was dissolved in 2% Triton-X in PBS. The relative number of cells in each well was evaluated by the absorbance at 595 nm in a microplate reader (Tecan). IC50 values were determined by non-linear regression with four parameters (Graphpad Prism 7.01, Y=Bottom+(Top−Bottom)/(1+10^((Log IC50−X)*HillSlope)).
# The compounds tested were compound samples prepared according to procedures described in the Synthetic Examples section, with the stereochemical purity as indicated in the Examples indicated for Example or Compound No. 1-62. The compounds tested were predominantly S-configuration at the alpha carbon of the amino acid scaffold, except for compounds 123, 124, and 125 which were predominantly R-configuration at the alpha carbon of the amino acid scaffold. “Example or Compound No.” in Table B-1 refers to the compound illustrated in the examples for Example or Compound Nos. 1-62 (the compounds of Examples 1-62 are labeled as Compounds 1-62 in Table 1). “Example or Compound No.” in Table B-1 refers to the compound number as indicated in Table 1 or Table 2 for Example or Compound Nos. 63-126.
# Chain of αvβ1 integrin (αvβ1 expressing CHO cells) (P06756 31-889): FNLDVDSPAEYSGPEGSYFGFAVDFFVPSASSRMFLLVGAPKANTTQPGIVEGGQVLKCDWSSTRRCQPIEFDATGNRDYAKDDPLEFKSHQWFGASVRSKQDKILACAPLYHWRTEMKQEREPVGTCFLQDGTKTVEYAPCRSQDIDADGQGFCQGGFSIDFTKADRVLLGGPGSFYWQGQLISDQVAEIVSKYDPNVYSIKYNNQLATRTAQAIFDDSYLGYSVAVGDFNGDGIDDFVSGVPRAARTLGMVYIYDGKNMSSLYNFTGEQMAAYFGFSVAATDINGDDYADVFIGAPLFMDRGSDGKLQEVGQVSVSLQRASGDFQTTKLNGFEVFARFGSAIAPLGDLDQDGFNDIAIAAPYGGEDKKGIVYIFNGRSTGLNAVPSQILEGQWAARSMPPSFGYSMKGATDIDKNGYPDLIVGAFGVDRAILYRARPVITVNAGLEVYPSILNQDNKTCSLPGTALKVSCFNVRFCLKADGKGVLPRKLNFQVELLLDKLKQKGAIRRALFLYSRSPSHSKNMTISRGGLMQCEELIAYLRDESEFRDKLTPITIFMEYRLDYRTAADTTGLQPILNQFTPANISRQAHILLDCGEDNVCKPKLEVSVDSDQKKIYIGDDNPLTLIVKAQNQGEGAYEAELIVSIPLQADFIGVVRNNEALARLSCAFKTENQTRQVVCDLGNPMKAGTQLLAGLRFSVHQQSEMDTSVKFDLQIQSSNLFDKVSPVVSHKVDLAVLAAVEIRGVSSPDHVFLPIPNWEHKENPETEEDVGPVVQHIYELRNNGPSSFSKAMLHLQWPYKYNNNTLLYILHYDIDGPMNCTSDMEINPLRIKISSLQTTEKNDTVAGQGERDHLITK
# Chain of αvβ1 integrin (αvβ1 expressing CHO cells) (P06756 891-1048 partner): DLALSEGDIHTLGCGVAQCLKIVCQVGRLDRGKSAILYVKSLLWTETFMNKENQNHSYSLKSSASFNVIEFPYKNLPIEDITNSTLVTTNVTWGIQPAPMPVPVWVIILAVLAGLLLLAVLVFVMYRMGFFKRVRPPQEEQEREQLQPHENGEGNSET
# Chain of αvβ1 integrin (αvβ1 expressing CHO cells) (P05556 21-798): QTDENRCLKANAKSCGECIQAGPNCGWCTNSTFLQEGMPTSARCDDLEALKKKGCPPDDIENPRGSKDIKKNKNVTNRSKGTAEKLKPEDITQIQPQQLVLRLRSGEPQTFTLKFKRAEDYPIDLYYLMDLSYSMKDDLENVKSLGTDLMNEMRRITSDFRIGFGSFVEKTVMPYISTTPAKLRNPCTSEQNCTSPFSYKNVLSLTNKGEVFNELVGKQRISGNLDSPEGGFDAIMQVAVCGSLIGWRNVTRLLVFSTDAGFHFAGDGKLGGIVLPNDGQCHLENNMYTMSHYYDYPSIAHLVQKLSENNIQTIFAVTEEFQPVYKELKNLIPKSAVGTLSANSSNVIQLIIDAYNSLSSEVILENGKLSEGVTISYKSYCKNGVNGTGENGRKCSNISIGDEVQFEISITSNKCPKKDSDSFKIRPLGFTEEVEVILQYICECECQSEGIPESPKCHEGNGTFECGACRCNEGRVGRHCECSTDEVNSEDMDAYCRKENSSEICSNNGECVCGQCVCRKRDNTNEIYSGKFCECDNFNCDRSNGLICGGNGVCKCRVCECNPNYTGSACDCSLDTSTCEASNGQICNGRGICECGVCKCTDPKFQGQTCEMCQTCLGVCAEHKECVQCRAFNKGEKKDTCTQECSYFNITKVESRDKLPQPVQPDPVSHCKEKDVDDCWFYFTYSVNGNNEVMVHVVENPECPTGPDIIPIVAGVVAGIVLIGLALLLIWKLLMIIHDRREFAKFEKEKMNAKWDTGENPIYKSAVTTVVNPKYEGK
row,SMILES,IC50 [nM]
1,"CN1CCN=C(NCCCCOc2ccc(C[C@H](NC(=O)c3c(Cl)cccc3Cl)C(=O)O)cc2)C1=O [Example 17, (S)-2-(2,6-dichlorobenzamido)-3-(4-(4-((4-methyl-3-oxo-3,4,5,6-tetrahydropyrazin-2-yl)amino)butoxy)phenyl)propanoic acid]",> 1000
2,"O=C(NC(Cc1ccc(OCCCC2Cc3cccnc3N2)cc1)C(=O)O)c1c(Cl)cccc1Cl (stereo not shown) [Example 18, 2-(2,6-dichlorobenzamido)-3-(4-(3-(2,3-dihydro-1H-pyrrolo[2,3-b]pyridin-2-yl)propoxy)phenyl)propanoic acid]",< 50
3,"O=C(N[C@@H](CCCCCCCc1ccc2c(n1)NCCC2)C(=O)O)c1c(Cl)cccc1Cl [Example 19, (S)-2-(2,6-dichlorobenzamido)-9-(5,6,7,8-tetrahydro-1,8-naphthyridin-2-yl)nonanoic acid]",< 50
4,"O=C(N[C@@H](C/C=C/CCCCc1ccc2c(n1)NCCC2)C(=O)O)c1c(Cl)cccc1Cl [Example 20, (S,E)-2-(2,6-dichlorobenzamido)-9-(5,6,7,8-tetrahydro-1,8-naphthyridin-2-yl)non-4-enoic acid]",< 50
5,"O=C(N[C@@H](Cc1ccc(N2CC(Cc3ccc4c(n3)NCCC4)C2)cc1)C(=O)O)c1c(Cl)cccc1Cl [Example 21, (S)-2-(2,6-dichlorobenzamido)-3-(4-(3-((5,6,7,8-tetrahydro-1,8-naphthyridin-2-yl)methyl)azetidin-1-yl)phenyl)propanoic acid]",> 1000
6,"O=C(N[C@@H](Cc1ccc(N2CC(c3ccc4c(n3)NCCC4)C2)cc1)C(=O)O)c1c(Cl)cccc1Cl [Example 22, (S)-2-(2,6-dichlorobenzamido)-3-(4-(3-(5,6,7,8-tetrahydro-1,8-naphthyridin-2-yl)azetidin-1-yl)phenyl)propanoic acid]",< 50
7,"O=C(NC(Cc1ccc(OCC2CC(Nc3ccccn3)C2)cc1)C(=O)O)c1c(Cl)cccc1Cl [Example 23, (S)-2-(2,6-dichlorobenzamido)-3-(4-(((1s,3R)-3-(pyridin-2-ylamino)cyclobutyl)methoxy)phenyl)propanoic acid]",< 50
8,"O=C(NC(Cc1ccc(OCC2CCC(Nc3ccccn3)CC2)cc1)C(=O)O)c1c(Cl)cccc1Cl [Example 25, (S)-2-(2,6-dichlorobenzamido)-3-(4-(((1s,4R)-4-(pyridin-2-ylamino)cyclohexyl)methoxy)phenyl)propanoic acid]",50 to 250
9,"CC(C)(CCNc1ccccn1)Nc1ccc(C[C@H](NC(=O)c2c(Cl)cccc2Cl)C(=O)O)cc1 [Example 26, (S)-2-(2,6-dichlorobenzamido)-3-(4-((2-methyl-4-(pyridin-2-ylamino)butan-2-yl)amino)phenyl)propanoic acid]",> 1000
10,"O=C(N[C@@H](Cc1ccc(OCCCC2CCc3cccnc3N2)cc1)C(=O)O)c1c(Cl)cccc1Cl (stereo partly drawn) [Example 27, (2S)-2-(2,6-dichlorobenzamido)-3-(4-(3-(1,2,3,4-tetrahydro-1,8-naphthyridin-2-yl)propoxy)phenyl)propanoic acid]",< 50
11,"O=C(N[C@@H](Cc1ccc(COCCc2ccc3c(n2)NCCC3)cc1)C(=O)O)c1c(Cl)cccc1Cl [Example 29, (S)-2-(2,6-dichlorobenzamido)-3-(4-((2-(5,6,7,8-tetrahydro-1,8-naphthyridin-2-yl)ethoxy)methyl)phenyl)propanoic acid trifluoroacetate]",< 50
12,"O=C(N[C@@H](Cc1ccc(COCCCNc2ccccn2)cc1)C(=O)O)c1c(Cl)cccc1Cl [Example 30, (S)-2-(2,6-dichlorobenzamido)-3-(4-((3-(pyridin-2-ylamino)propoxy)methyl)phenyl) propanoic acid trifluoroacetate]",250 to 1000
13,"O=C(NC(Cc1ccc(COC2CCC(Nc3ccccn3)CC2)cc1)C(=O)O)c1c(Cl)cccc1Cl [Example 31, (S)-2-(2,6-dichlorobenzamido)-3-(4-((((1s,4R)-4-(pyridin-2-ylamino)cyclohexyl)oxy)methyl)phenyl)propanoic acid trifluoroacetate]",50 to 250
14,"O=C(NC(Cc1ccc(COC2CC(Nc3ccccn3)C2)cc1)C(=O)O)c1c(Cl)cccc1Cl [Example 32, (S)-2-(2,6-dichlorobenzamido)-3-(4-(((1s,3R)-3-(pyridin-2-ylamino)cyclobutoxy)methyl)phenyl)propanoic acid trifluoroacetate]",50 to 250
15,"CC(OCCc1ccc2c(n1)NCCC2)c1ccc(C[C@H](NC(=O)c2c(Cl)cccc2Cl)C(=O)O)cc1 (stereo partly drawn) [Example 33, (2S)-2-(2,6-dichlorobenzamido)-3-(4-(1-(2-(5,6,7,8-tetrahydro-1,8-naphthyridin-2-yl)ethoxy)ethyl)phenyl)propanoic acid]",< 50
16,"O=C(N[C@@H](Cc1ccc(OCCCc2ccc3c(n2)NCCC3)cc1)C(=O)O)c1ccc(C2CC2)cc1 [Example 34, (2S)-2-[(4-cyclopropylbenzoyl)amino]-3-[4-[3-(5,6,7,8-tetrahydro-1,8-naphthyridin-2-yl)propoxy]phenyl]propanoic acid]",< 50
17,"O=C(N[C@@H](Cc1ccc(OCCCc2ccc3c(n2)NCCC3)cc1)C(=O)O)c1cc(Cl)cc(Cl)c1 [Example 35, (2S)-2-[(3,5-dichlorobenzoyl)amino]-3-[4-[3-(5,6,7,8-tetrahydro-1,8-naphthyridin-2-yl)propoxy]phenyl]propanoic acid]",< 50
18,"O=C(N[C@@H](Cc1ccc(OCCCc2ccc3c(n2)NCCC3)cc1)C(=O)O)c1cc(F)ccc1Cl [Example 36, (2S)-2-[(2-chloro-5-fluoro-benzoyl)amino]-3-[4-[3-(5,6,7,8-tetrahydro-1,8-naphthyridin-2-yl)propoxy]phenyl]propanoic acid]",< 50
19,"O=C(N[C@@H](Cc1cccc(OCCCc2ccc3c(n2)NCCC3)c1)C(=O)O)c1c(Cl)cccc1Cl [Example 37, (2S)-2-((2,6-dichlorobenzoyl)amino)-3-(3-(3-(5,6,7,8-tetrahydro-1,8-naphthyridin-2-yl)propoxy)phenyl)propanoic acid]",250 to 1000
20,"O=C(NC(Cc1ccc(O[C@H]2CC[C@@H](Nc3ccccn3)CC2)cc1)C(=O)O)c1c(Cl)cccc1Cl (stereo partly drawn) [Example 38, (2S)-2-[(2,6-dichlorobenzoyl)amino]-3-[4-[4-cis-(2-pyridylamino)cyclohexoxy]phenyl]propanoic acid]",< 50
21,"O=C(N[C@@H](Cc1ccc(O[C@H]2CC[C@H](Nc3ccccn3)CC2)cc1)C(=O)O)c1c(Cl)cccc1Cl [Example 39, (2S)-2-[(2,6-dichlorobenzoyl)amino]-3-[4-[4-trans-(2-pyridylamino)cyclohexoxy]phenyl]propanoic acid]",> 1000
22,"O=C(N[C@@H](Cc1ccc(OCCCc2ccc3c(n2)NCCC3)cc1)C(=O)O)c1ccc2cn[nH]c2c1 [Example 40, (2S)-2-(1H-indazole-6-carbonylamino)-3-[4-[3-(5,6,7,8-tetrahydro-1,8-naphthyridin-2-yl)propoxy]phenyl]propanoic acid]",< 50
23,"Cn1ncc2ccc(C(=O)N[C@@H](Cc3ccc(OCCCc4ccc5c(n4)NCCC5)cc3)C(=O)O)cc21 [Example 41, (2S)-2-[(1-methylindazole-6-carbonyl)amino]-3-[4-[3-(5,6,7,8-tetrahydro-1,8-naphthyridin-2-yl)propoxy]phenyl]propanoic acid]",< 50
24,"O=C(N[C@@H](Cc1ccc(OCCCc2ccc3c(n2)NCCC3)cc1)C(=O)O)c1ccc2[nH]ncc2c1 [Example 42, (2S)-2-(1H-indazole-5-carbonylamino)-3-[4-[3-(5,6,7,8-tetrahydro-1,8-naphthyridin-2-yl)propoxy]phenyl]propanoic acid]",< 50
25,"Cn1ncc2cc(C(=O)N[C@@H](Cc3ccc(OCCCc4ccc5c(n4)NCCC5)cc3)C(=O)O)ccc21 [Example 43, (2S)-2-[(1-methylindazole-5-carbonyl)amino]-3-[4-[3-(5,6,7,8-tetrahydro-1,8-naphthyridin-2-yl)propoxy]phenyl]propanoic acid]",< 50
26,"Cn1cc2ccc(C(=O)N[C@@H](Cc3ccc(OCCCc4ccc5c(n4)NCCC5)cc3)C(=O)O)cc2n1 [Example 44, (2S)-2-[(2-methylindazole-6-carbonyl)amino]-3-[4-[3-(5,6,7,8-tetrahydro-1,8-naphthyridin-2-yl)propoxy]phenyl]propanoic acid]",< 50
27,"Cn1cc2cc(C(=O)N[C@@H](Cc3ccc(OCCCc4ccc5c(n4)NCCC5)cc3)C(=O)O)ccc2n1 [Example 45, (2S)-2-[(2-methylindazole-5-carbonyl)amino]-3-[4-[3-(5,6,7,8-tetrahydro-1,8-naphthyridin-2-yl)propoxy]phenyl]propanoic acid]",< 50
28,"O=C(N[C@@H](Cc1ccc(OCC2(CNc3ccccn3)CC2)cc1)C(=O)O)c1c(Cl)cccc1Cl [Example 46, (2S)-2-((2,6-dichlorobenzoyl)amino)-3-(4-((1-((2-pyridylamino)methyl)cyclopropyl)methoxy)phenyl)propanoic acid]",50 to 250
